Reference: the NIST ThermoML archive (doi:10.1007/s10765-012-1383-x)

Conditions: Fluid (supercritical or subcritical phases), Bellows volumetry

CC(C)C [2-methylpropane]
mass density [kg/m3]
Conditions	360 K	400 K	440 K	500 K	550 K	600 K
50000 kPa	568.86	539.91	512.43	472.16	440.41	410.52
60000 kPa	579.25	552.31	526.93	489.95	460.74	433.26
70000 kPa	588.53	563.06	539.33	504.87	477.5	451.97
80000 kPa	597.04	572.73	550.28	517.77	492.04	467.84
90000 kPa	604.5	581.56	559.97	529.04	504.6	481.73
100000 kPa	611.74	589.43	568.96	539.24	515.83	494.03
120000 kPa	624.36	603.57	584.57	557	535.44	515.09
140000 kPa	635.51	615.95	598.12	572.25	551.94	532.7
160000 kPa	645.68	627.09	610.19	585.63	566.41	548.14
180000 kPa	655.03	637.21	621.17	597.32	579.21	561.73
200000 kPa	663.47	646.22	631.03	607.94	590.74	573.91

CCCC [butane]
mass density [kg/m3]
Conditions	360 K	400 K	440 K	500 K	550 K	600 K
50000 kPa	585.47	556.11	527.49	485.76	452.74	421.67
60000 kPa	595.41	567.8	541.19	502.86	472.65	444.04
70000 kPa	604.19	578.11	552.99	517.01	489.04	462.25
80000 kPa	612.02	587.28	563.51	529.24	503.05	477.92
90000 kPa	619.58	595.58	572.93	540.26	515.43	491.53
100000 kPa	626.29	603.28	581.43	550.18	526.47	503.41
120000 kPa	638.57	617	596.67	567.64	545.49	524.18
140000 kPa	649.66	629.05	609.84	582.51	561.8	541.56
160000 kPa	659.24	639.75	621.49	595.57	575.61	556.81
180000 kPa	668.57	649.69	632.12	607.21	588.11	570.23
200000 kPa	676.57	658.6	641.85	617.68	599.35	582.23
